Laboratory results reported in patent publication US20240270821A1, “GIP/GLP1/GCG TRI-RECEPTOR AGONISTS AND USES THEREOF” (priority 2023, published 2024).
Read-outs that look alike come from different tables or passages of the source. Starred links: 1 amine or outer side, 2 acyl side, 3 side chain; linkers in the order of their positions; H or OH if unused. Non-standard residues stand in square brackets, D forms with d. Groups on a side chain read outwards from the residue. No end group written: not given here. *: point of attachment. C20 diacid = O=C(O)CCCCCCCCCCCCCCCCCCC(=O)*; C18 diacid = O=C(O)CCCCCCCCCCCCCCCCC(=O)*; γGlu = O=C(O)[C@H](CCC(=O)[*:2])N[*:1]; αMe4Pal = C[C@](N)(Cc1ccncc1)C(=O)O; αMeL = CC(C)C[C@](C)(N)C(=O)O; Orn = NCCC[C@H](N)C(=O)O; AEEA = NCCOCCOCC(=O)O; Aib = CC(C)(N)C(=O)O

What was measured:
Type in all cases: cell-based
[1] = molecular target: T1, hGIPR (Homo sapiens, UniProt P48546); test: Functional cAMP activity in the presence of 1% HSA
T1 sequence (P48546 22-466): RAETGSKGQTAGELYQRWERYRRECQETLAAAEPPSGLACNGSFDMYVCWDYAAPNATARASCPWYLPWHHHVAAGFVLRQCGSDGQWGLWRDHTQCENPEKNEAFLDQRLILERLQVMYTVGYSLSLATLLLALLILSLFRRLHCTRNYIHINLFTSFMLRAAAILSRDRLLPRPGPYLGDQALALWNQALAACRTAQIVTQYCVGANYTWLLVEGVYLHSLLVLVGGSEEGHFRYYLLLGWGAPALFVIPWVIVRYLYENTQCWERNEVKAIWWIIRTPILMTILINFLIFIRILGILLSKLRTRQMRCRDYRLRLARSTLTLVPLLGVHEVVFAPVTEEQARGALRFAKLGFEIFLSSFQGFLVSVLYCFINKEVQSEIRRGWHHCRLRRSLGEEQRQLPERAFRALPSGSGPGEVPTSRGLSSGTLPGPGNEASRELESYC

[2] = molecular target: human GLP1-R (Homo sapiens, UniProt P43220); test: GLP1-R internalization assay in HEK293 cells; settings: for Internalization % TOP: normalized to maximum concentration of GLP-1 (100%)
[3] = molecular target: T2, hGLP-1R (Homo sapiens, UniProt P43220); test: Functional cAMP activation in the presence of 0.1% casein (no HSA);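 note: intracellular cAMP rise after 30 min at 37 °C read by HTRF, normalized between buffer only (0%) and maximal control ligand (100%), four-parameter variable-slope fit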
[4] = molecular target: hGcgR (Homo sapiens, UniProt P47871); test: as above;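 note: intracellular cAMP rise after 30 min at 37 °C, read by HTRF against a cAMP standard curve, scaled from buffer only (0%) to maximal control ligand response (100%)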
[5] = molecular target: T1, hGIPR; test: as above
[6] = molecular target: T2, hGLP-1R; test: Functional cAMP activity in the presence of 1% HSA
[7] = molecular target: human GcgR (Homo sapiens, UniProt P47871); test: Functional cAMP activity in the presence of 1% HSA
[8] = HEK293 cells expressing SNAP-GLP-1R, read-out: GLP1R Internalization EC50
[9] = in the presence of 0.1% casein (no HSA), geometric mean, read-out: Relative cAMP EC50, hGLP-1R
[10] = in the presence of 0.1% casein (no HSA), geometric mean, read-out: Relative cAMP EC50, hGcgR
[11] = in the presence of 0.1% casein (no HSA), geometric mean, read-out: Relative cAMP EC50, hGIPR
[12] = read-out: cAMP Rel EC50, hGLP-1R
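Throughout, for Relative cAMP EC50, hGIPR: intracellular cAMP rise after 30 min at 37 °C read by HTRF against a standard curve, scaled between buffer alone (0%) and top control ligand concentration (100%), four-parameter fit.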

Sequence of human GLP1-R (P43220 24-463): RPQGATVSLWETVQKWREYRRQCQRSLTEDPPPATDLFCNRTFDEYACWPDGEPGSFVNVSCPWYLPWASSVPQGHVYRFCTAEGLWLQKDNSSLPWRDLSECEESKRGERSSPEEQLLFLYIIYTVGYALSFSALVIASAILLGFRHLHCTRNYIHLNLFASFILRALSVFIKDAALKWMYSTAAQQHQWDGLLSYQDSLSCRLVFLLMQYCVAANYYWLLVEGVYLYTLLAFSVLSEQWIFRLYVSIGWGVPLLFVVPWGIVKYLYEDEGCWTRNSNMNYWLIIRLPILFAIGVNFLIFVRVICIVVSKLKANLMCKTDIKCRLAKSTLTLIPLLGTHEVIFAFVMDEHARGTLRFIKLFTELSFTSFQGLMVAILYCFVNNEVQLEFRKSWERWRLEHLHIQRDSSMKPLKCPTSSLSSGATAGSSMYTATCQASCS
T2 sequence (P43220 24-463): as above
Sequence of human GcgR (P47871 26-477): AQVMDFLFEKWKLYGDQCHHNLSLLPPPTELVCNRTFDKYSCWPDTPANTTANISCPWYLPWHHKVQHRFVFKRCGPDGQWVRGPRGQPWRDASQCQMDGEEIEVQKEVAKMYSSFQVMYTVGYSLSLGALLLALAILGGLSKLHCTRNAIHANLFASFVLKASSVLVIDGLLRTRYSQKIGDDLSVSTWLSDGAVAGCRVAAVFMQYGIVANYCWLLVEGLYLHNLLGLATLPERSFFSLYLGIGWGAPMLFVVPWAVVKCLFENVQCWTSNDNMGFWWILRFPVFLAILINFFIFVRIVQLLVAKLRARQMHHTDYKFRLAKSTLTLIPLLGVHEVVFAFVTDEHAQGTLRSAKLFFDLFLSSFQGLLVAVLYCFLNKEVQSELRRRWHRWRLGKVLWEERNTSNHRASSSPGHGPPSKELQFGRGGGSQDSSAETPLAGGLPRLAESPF
Sequence of hGcgR (P47871 26-477): as above

Molecule | EC50 ([1]; read-out: cAMP Rel EC50, hGIPR) [nM] | EC50 [2, 8] [nM] | Internalization % TOP [2] [%] | EC50 [3, 9] [nM] | EC50 [4, 10] [nM] | EC50 [5, 11] [nM] | EC50 [6, 12] [nM] | EC50 ([7]; read-out: cAMP Rel EC50, hGcgR) [nM] | EC50 [1] [nM] | EC50 [2] [nM] | EC50 [3] [nM] | EC50 [4] [nM] | EC50 [5] [nM] | EC50 [6] [nM] | EC50 [7] [nM]
CC[C@H](C)[C@H](NC(=O)[C@H](Cc1ccccc1)NC(=O)[C@H](C)NC(=O)C(C)(C)NC(=O)[C@H](CCC(N)=O)NC(=O)[C@H](C)NC(=O)[C@H](CCCCNC(=O)COCCOCCNC(=O)CC[C@H](NC(=O)CCCCCCCCCCCCCCCCC(=O)O)C(=O)O)NC(=O)[C@H](CCCCN)NC(=O)[C@H](CC(=O)O)NC(=O)[C@H](CC(C)C)NC(=O)[C@](C)(CC(C)C)NC(=O)[C@H](CCCN)NC(=O)[C@H](CO)NC(=O)[C@H](Cc1ccccc1)NC(=O)[C@H](CC(=O)O)NC(=O)[C@H](CO)NC(=O)[C@@H](NC(=O)[C@H](Cc1ccccc1)NC(=O)[C@@H](NC(=O)CNC(=O)[C@H](CCC(N)=O)NC(=O)C(C)(C)NC(=O)[C@@H](N)Cc1ccc(O)cc1)[C@@H](C)O)[C@@H](C)O)C(=O)N[C@@H](CCC(=O)O)C(=O)N[C@@H](Cc1ccc(O)cc1)C(=O)N[C@@H](CC(C)C)C(=O)N[C@@H](CC(C)C)C(=O)N[C@@H](CCC(=O)O)C(=O)N[C@H](C)C(=O)NCC(=O)N1CCC[C@H]1C(=O)N[C@@H](CO)C(=O)N[C@@H](CO)C(=O)NCC(=O)N[C@@H](C)C(=O)N1CCC[C@H]1C(=O)N1CCC[C@H]1C(=O)N1CCC[C@H]1C(=O)N[C@@H](CO)C(=O)NCC(=O)N[C@@H](CCC(=O)O)C(N)=O [Example 129] | 24.3 | 22.5 | 40.6 | 1.87 | 2.01 | 0.134 | 284 | 510 | – | – | – | – | – | – | –
Y[Aib]QGTFTSDFS[Orn][αMeL]LDKK([AEEA-γGlu-C18 diacid])AQ[Aib]AFIEYLLEGGPSSGAPPPSEG-NH2 [Example 50] | 69.6 | 30.1 | 31.1 | 4.65 | 4.25 | 0.29 | 1110 | 1040 | – | – | – | – | – | – | –
H-Y[Aib]QGTFTSDFS[Orn][αMeL]LDKK([AEEA-AEEA-γGlu-C18 diacid])AQ[Aib]AFIEYLLE[Aib]GPSSGAPPPSGE-NH2 [Example 111] | 10.4 | 49.1 | 46.4 | 5.06 | 4.25 | 0.0888 | 878 | 1260 | – | – | – | – | – | – | –
H-Y[Aib]QGTFTSDFSR[αMeL]LDKK([AEEA-γGlu-C18 diacid])AQ[Aib]AFIEYLLE[Aib]GPSSGAPPPSGS-NH2 [Example 79] | – | – | 45.3 | – | – | – | – | – | 14.3 | 56.6 | 1.8 | 3.08 | 0.0773 | 437 | 903
H-Y[Aib]QGTFTSDFSK[αMeL]LDKK([AEEA-γGlu-C20 diacid])AQ[Aib]AFIEYLLAGGPSSGAPPPSGG-NH2 [Example 12] | 30.2 | 48.5 | 75.3 | 1.46 | 12.2 | 0.17 | 216 | 1490 | – | – | – | – | – | – | –
H-Y[Aib]QGTFTSDFS[Orn][αMeL]LDKK([AEEA-γGlu-C18 diacid])AQ[Aib]AFIEYLIE[Aib]GESSGAPPPSGS-NH2 [Example 218] | 15 | 80.5 | 35 | 0.76 | 7.89 | 0.0853 | 152 | 1480 | – | – | – | – | – | – | –
H-Y[Aib]QGTFTSDFS[Orn][αMeL]LDKK([AEEA-γGlu-C18 diacid])AQ[αMe4Pal]AFIEYLIE[Aib]GESSGAPPPSGS-NH2 [Example 229] | 27.8 | 42.4 | 31.4 | 1.58 | 2.3 | 0.179 | 249 | 332 | – | – | – | – | – | – | –
Y[Aib]QGTFTSDFSK[αMeL]LDKK([AEEA-γGlu-C18 diacid])AQ[Aib]AFIEYLLEGGPSSGAPPPSEG-NH2 [Example 48] | 46.9 | 44 | 55.2 | 2.99 | 3.8 | 0.27 | 570 | 728 | – | – | – | – | – | – | –
H-Y[Aib]QGTFTSDFSK[αMeL]LDKK([AEEA-γGlu-C20 diacid])AQ[Aib]AFIEYLLAGGPSSGAPPPGGE-NH2 [Example 15] | 36.3 | 79 | 74.9 | 1.77 | 11.1 | 0.201 | 276 | 1980 | – | – | – | – | – | – | –
H-Y[Aib]QGTFTSDYSK[αMeL]LDKK([AEEA-γGlu-C18 diacid])AQ[Aib]AFIEYLLEGGESSGAPPPSGS-NH2 [Example 358] | 38.8 | 21.5 | 83.1 | 2.31 | 2.78 | 0.182 | 492 | 876 | – | – | – | – | – | – | –
H-Y[Aib]QGTFTSDFS[Orn][αMeL]LDKK([AEEA-γGlu-γGlu-C18 diacid])AQ[Aib]AFIEYLLE[Aib]GPSSGAPPPSGT-NH2 [Example 278] | 7.69 | 251 | 68.6 | 4.11 | 4.45 | 0.0963 | 241 | 274 | – | – | – | – | – | – | –
H-Y[Aib]QGTFTSDFS[Orn][αMeL]LDKK([AEEA-γGlu-C18 diacid])AQ[Aib]AFIEYLLAGGPSSGAPPPEGE-NH2 [Example 99] | 29.5 | 56.9 | 46.1 | 3.54 | 6.09 | 0.174 | 588 | 1130 | – | – | – | – | – | – | –
H-Y[Aib]QGTFTSDFS[Orn][αMeL]LDKK([AEEA-AEEA-γGlu-C18 diacid])AQ[Aib]AFIEYLLE[Aib]GHSSGAPPPSGS-NH2 [Example 181] | 12.7 | 116 | 47.5 | 4.39 | 6.25 | 0.133 | 365 | 772 | – | – | – | – | – | – | –
